Assay results from US12611406B2, “Oxopiperazine derivatives for the treatment of cancer” (Inthera Bioscience AG, priority 2020, dated 2026).
Where two headings read alike, the source gives them in different places.

Tests used:
NCI-H69 [1] = assay: NCI-H69 small cell lung cancer CDX mouse model; conditions: for Tumor growth inhibition: p <0.001
Procedure: The 30 mg/kg group was given initially QW at 30 mg/kg and from day 31 onwards was given once weekly at 60 mg/kg, as indicated.
In Table 2, tumor growth inhibition (TGI) calculations are based on additional growth of tumors, i.e., tumor sizes on the day of TGI estimation minus tumor sizes at the start of treatment are used for calculations. Values larger than 100% indicate tumor regression. […] The total daily dose of 60 mg/kg was administered as *single dose or given as **30 mg/kg BID (twice daily).

[2] = 14-day daily oral repeated-dose DRF study in Beagle dogs (citrate salt); type: in vivo; conditions: for Cmax / Tmax / half-life: both sexes, Beagle, dog, plasma, po
Procedure: The objective of this dose-range-finding study was to select the dose levels for a potential subsequent toxicity study of Compound 1 by oral administration to Beagle dogs.
Compound 1 (citrate salt) administration in this study was intended once daily for up to 14 consecutive days by oral gavage to groups of naïve Beagle dogs (n=1/sex/group) at dose levels of 0.1, 0.3, 1, 3, 6, or 12 mg Compound 1 per kg bodyweight and day in 0.5% methylcellulose by using a staggered approach. The actual dose levels and durations of dosing were flexibly adapted according to PK and signs of tolerability. For TK evaluation blood samples were collected from each dog on Days 1 and 14 at pre-dose, 1, 2, 4, 8, 12, and 24 hours post-dose.

[3] = Metabolic stability in intestinal microsomes; type: in vitro ADME; conditions: monkey compared to human
Procedure: In vitro testing also supports the use of mouse, Beagle dog, and cynomolgus monkey models to assay dosing and effectiveness of Compound 1. […] The metabolic profiles of hepatocytes from mouse, dog, and monkey that were cultured with Compound 1 were assessed. Similarly, the metabolic stability of Compound 1 was assayed in vitro using intestinal microsomes from mouse, rat, dog, monkey, and humans.

Hut-78 = assay: S-phase arrest (cell cycle FACS); type: cell-based; design: key: “+” (present); “−” (absent); conditions: Rb x, p53 x
Procedure: (§1) Cell cycle phase distribution in control (C) cells or cells treated at 20 or 200 nM Compound 1 for 24 hours (24 h) determined by fluorescence activated cell sorting (FACS) analysis, and detection of histone H2A variant H2A.X phosphorylation (γH2A.X, also referred to herein as gamma H2A.X or γH2A.X) by Western blot as DNA damage biomarker.
(§2) In table 1, “wt”=wild-type; “x”=cells harboring Rb and p53 deficiencies; “+” (present) or “−” (absent) indicate the arrest (i.e. accumulation) of cells in S-phase triggered by Compound 1, which coincided with accumulation of the DNA damage marker phosphorylated gamma H2AX (γH2AX; see FIG. 3A). These events are followed by activation of caspases 3 and 7 as indicators of cell apoptosis as indicated by “+” (present) or “−” (absent). In cancer cells with intact Rb and/or p53 functions (wt=wild-type), Compound 1 induced growth arrest but not a substantial increase of cells in S-phase (=S-phase arrest). Upon release of treatment, such cells are able to proliferate again.

BT-549 = assay: S-phase arrest (cell cycle FACS); type: cell-based; design: key: “+” (present); “−” (absent); conditions: Rb x, p53 x
Procedure: as §1, §2

NCI-H660 = assay: S-phase arrest (cell cycle FACS); type: cell-based; design: key: “+” (present); “−” (absent); conditions: Rb x, p53 x
Procedure: as §1, §2

NCI-H82 = assay: S-phase arrest (cell cycle FACS); type: cell-based; design: key: “+” (present); “−” (absent); conditions: Rb x, p53 x
Procedure: as §1, §2

NCI-H69 [4] = assay: S-phase arrest (cell cycle FACS); type: cell-based; design: key: “+” (present); “−” (absent); conditions: Rb x, p53 x
Procedure: as §1, §2

LNCaP = assay: S-phase arrest (cell cycle FACS); type: cell-based; design: key: “+” (present); “−” (absent); conditions: Rb wt, p53 wt
Procedure: as §1, §2

NCI-H209 = assay: S-phase arrest (cell cycle FACS); type: cell-based; design: key: “+” (present); “−” (absent); conditions: Rb x, p53 x
Procedure: as §1, §2

NCI-H146 = assay: S-phase arrest (cell cycle FACS); type: cell-based; design: key: “+” (present); “−” (absent); conditions: Rb x, p53 x
Procedure: as §1, §2

DU-145 = assay: S-phase arrest (cell cycle FACS); type: cell-based; design: key: “+” (present); “−” (absent); conditions: Rb x, p53 x
Procedure: as §1, §2

22Rv1 [5] = assay: S-phase arrest (cell cycle FACS); type: cell-based; design: key: “+” (present); “−” (absent); conditions: Rb wt, p53 wt
Procedure: as §1, §2

SCLC-21H = assay: S-phase arrest (cell cycle FACS); type: cell-based; design: key: “+” (present); “−” (absent); conditions: Rb x, p53 x
Procedure: as §1, §2

Y-79 = assay: S-phase arrest (cell cycle FACS); type: cell-based; design: key: “+” (present); “−” (absent); conditions: Rb x, p53 wt
Procedure: as §1, §2

22Rv1 [6] = assay: 22Rv1 prostate cancer CDX mouse model; type: in vivo
Description: Left panel: Tumor growth curves. Right panel: Body weight development. The respective dosing regimen is indicated as bars below the x-axis. QD: once daily treatment; po: per os.
Left panel: Tumor growth curves. Right panel: Body weight development. The dosing regimen is indicated as dots below the curves. BID: twice daily treatment. QW: once weekly treatment. p.o.: per oral.
NCI-H660 cells represent a rather far advanced PC type in which not only the tumor suppressor functions of Rb1 and p53 have been lost (see Table 1). Furthermore, the cells already have developed a small cell phenotype characteristic of advanced treatment-resistant PC. In contrast, 22Rv1 tumor cells that are wild-type for Rb1 and p53 pathways were less sensitive to Compound 1 treatment when a once weekly dosing scheme was used.
Values larger than 100% indicate tumor regression.

CC(C)C[C@@H]1NCCN([C@@H](CC(C)C)C(=O)N2CCC3(C[C@@H]2C)OCC(CN2CCCC2)CO3)C1=O (stereo partly drawn) [Compound 1, (S)-3-isobutyl-1-((S)-4-methyl-1-((S)-8-methyl-3-(pyrrolidin-1-ylmethyl)-1,5-dioxa-9-azaspiro[5.5]undecan-9-yl)-1-oxopentan-2-yl)piperazin-2-one]
body weight (NCI-H69 [1]; 3 mg/kg oral daily continuous): slight body weight loss
tumor response (NCI-H69 [1]; 3 mg/kg oral daily continuous): regressions of tumors
tolerability (NCI-H69 [1]; 3 mg/kg oral every other week): well tolerated
anti-tumor activity, every other week vs daily (NCI-H69 [1]; 3 mg/kg oral, every other week compared to same dose daily): almost the same anti-tumor growth activity
anti-tumor activity, once weekly vs daily (NCI-H69 [1]; 30 mg/kg once every seven days, 60 mg/kg weeks 4 to 7, compared to 3 mg/kg daily): same anti-tumor growth activity
body weight (NCI-H69 [1]; intermittent (once weekly) dosing): did not cause significant body weight decreases
Tumor growth inhibition (NCI-H69 [1]; once weekly 15 mg/kg/day, 7 weeks): 58% (<0.001)/
Tumor growth inhibition (NCI-H69 [1]; once weekly 30 mg/kg/day, 3 weeks): 76% (<0.001)/
Tumor growth inhibition (NCI-H69 [1]; once weekly 60 mg/kg/day, 4 weeks, after 3 weeks at 30 mg/kg): 103% (<0.001)/
accumulation of drug exposure (Day 1 versus Day 14) ([2]; 0.1 mg/kg/day): no accumulation with time
Total AUC(o-inf) ([2]; 0.1 mg/kg/day, Day 1): 5.6 ng·h/mL
accumulation of drug exposure (Day 1 versus Day 14) ([2]; 0.3 mg/kg/day): slight increase over time
Total AUC(o-inf) ([2]; 0.3 mg/kg/day, Day 1): 13.8 ng·h/mL
Total AUC(o-inf) ([2]; 1 mg/kg/day, Day 1): 63.8 ng·h/mL
Total AUC(o-inf) ([2]; 3 mg/kg/day, Day 1): 171.6 ng·h/mL
Total AUC(o-inf) ([2]; 6 mg/kg/day, Day 1): 734.8 ng·h/mL
Total AUC(o-inf) ([2]; 12 mg/kg/day, Day 1): 936.4 ng·h/mL
Cmax ([2]; 0.1 mg/kg/day, Day 1, read-out: mean Cmax plasma levels): 0.6 ng/mL
Cmax ([2]; 0.1 mg/kg/day, Day 14, read-out: group mean Cmax plasma levels): 0.4 ng/mL
Cmax ([2]; 0.3 mg/kg/day, Day 1, read-out: mean Cmax plasma levels): 2.3 ng/mL
Cmax ([2]; 0.3 mg/kg/day, Day 14, read-out: group mean Cmax plasma levels): 3.8 ng/mL
Cmax ([2]; 1 mg/kg/day, Day 1, read-out: mean Cmax plasma levels): 8.6 ng/mL
Cmax ([2]; 3 mg/kg/day, Day 1, read-out: mean Cmax plasma levels): 23.8 ng/mL
Cmax ([2]; 6 mg/kg/day, Day 1, read-out: mean Cmax plasma levels): 114 ng/mL
Cmax ([2]; 12 mg/kg/day, Day 1, read-out: mean Cmax plasma levels): 182 ng/mL
Tmax ([2]; 0.1 and 0.3 mg/kg/day, Day 14): 1 h
half-life ([2]; 0.1 and 0.3 mg/kg/day, Day 14, read-out: terminal elimination half-lives): 4.7 to 5.5 h
Tmax ([2]; all doses, Day 1): 1 to 2 h
half-life ([2]; all doses, Day 1, read-out: elimination half-life): 3.4 to 6.2 h
tolerability ([2]; daily oral 0.1 and 0.3 mg/kg/day for 14 days and 1 mg/kg/day for 6 days): well-tolerated
tolerability ([2]; daily oral 3, 6, and 12 mg/kg/day for 14 days): not well-tolerated
stability in intestinal microsomes [3]: lower stability
S-Phase Arrest (Hut-78): +
S-Phase Arrest (BT-549): +
S-Phase Arrest (NCI-H660): +
S-Phase Arrest (NCI-H82): +
S-Phase Arrest (NCI-H69 [4]): +
S-Phase Arrest (LNCaP): −
S-Phase Arrest (NCI-H209): +
S-Phase Arrest (NCI-H146): +
S-Phase Arrest (DU-145): +
S-Phase Arrest (22Rv1 [5]): −
S-Phase Arrest (SCLC-21H): +
S-Phase Arrest (Y-79): −
tumor response (22Rv1 [6]; 3 mg/kg oral): cytostatic growth inhibition
anti-tumor activity, every other week vs daily (22Rv1 [6]; 3 mg/kg oral, 7d on/7d off compared to same dose daily): almost the same anti-tumor growth activity
Tumor growth inhibition (22Rv1 [6]; 30 mg/kg BID once weekly (60 mg/kg weekly)): approx. 50%
Tumor growth inhibition (22Rv1 [6]; once weekly 60 mg/kg/day as 30 mg/kg BID, 5 weeks, p 0.001): 47% (0.001)/**5 weeks
